Source: patent US20130331378A1, “PYRAZOLOPYRIDINE DERIVATIVE OR PHARMACOLOGICALLY ACCEPTABLE SALT THEREOF” (KISSEI PHARMACEUTICAL CO., LTD., priority 2011, published 2013)

Biological target: T1, rat EP1 receptor (Rattus norvegicus, UniProt P70597)
T1 construct: expressed in transfected cells
T1 sequence (P70597 1-405): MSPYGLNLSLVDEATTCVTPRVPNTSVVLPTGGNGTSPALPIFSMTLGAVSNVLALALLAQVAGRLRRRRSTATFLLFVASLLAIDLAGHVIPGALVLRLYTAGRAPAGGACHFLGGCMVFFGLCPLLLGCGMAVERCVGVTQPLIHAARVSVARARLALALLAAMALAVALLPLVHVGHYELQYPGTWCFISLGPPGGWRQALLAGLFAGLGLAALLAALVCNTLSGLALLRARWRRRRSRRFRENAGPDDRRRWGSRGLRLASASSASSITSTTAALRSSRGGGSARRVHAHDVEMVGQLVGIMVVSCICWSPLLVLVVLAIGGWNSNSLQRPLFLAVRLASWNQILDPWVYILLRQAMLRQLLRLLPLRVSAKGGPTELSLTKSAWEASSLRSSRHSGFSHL
Test: Test for confirming EP1 receptor antagonistic effect: suppression of prostaglandin E2-induced rise in intracellular calcium concentration
Type: cell-based
Settings: rat EP1 receptor-expressing COS-1 cells; prostaglandin E2 10 nM; Fluo 4-AM fluorescent signal; test compound 0.1 nM to 10 μM
Description: (1) Preparation of Rat EP1 Expression Vector
The first PCR was performed with Rat Kidney BD Marathon-Ready cDNA (Nippon Becton Dickinson Co., Ltd.) as a template using a forward primer represented by SEQ ID NO: 1 and a reverse primer represented by SEQ ID NO: 2 and using KOD-Plus-Ver 2.0 (Toyobo Co., Ltd.). The second PCR was further performed in a similar manner with this amplification product as a template using a forward primer represented by SEQ ID NO: 3 and a reverse primer represented by SEQ ID NO: 4. The amplification product obtained by the second PCR was incorporated into a vector (pcDNA3.1 D/V5-His-TOPO (registered trademark), Invitrogen Corporation). This vector with the incorporated amplification product was introduced to E. coli (One Shot TOP10 Competent Cell, Invitrogen Corporation) by a conventional method to perform transformation. This transformed E. coli was cultured for 1 day in an LB agar medium. After the culture, colonies were selected and cultured in an LB liquid medium containing 50 μg/mL of ampicillin. After the culture, the vector was purified using QIAprep Spin Miniprep Kit (Qiagen Corporation). The base sequence (SEQ ID NO: 5) of the inserted site in this vector was compared with the base sequence (Ptger1) of rat EP1 registered under Accession No. NM_013100 in a heretofore known database (NCBI) and consequently was completely identical except for 1 base. Moreover, an amino acid sequence translated from this base sequence was completely identical to the amino acid sequence of the rat EP1 receptor registered under Accession No. NP_037232 in NCBI. Thus, it was confirmed that the cloned gene sequence was the base sequence of the rat EP1 receptor and the obtained amino acid sequence was the rat EP1 receptor. The pcDNA3.1 D/V5-His-TOPO (registered trademark) in which the nucleic acid represented by SEQ ID NO: 5 was inserted was used as a rat EP1 expression vector.
(2) Preparation of Rat EP1 Receptor-Expressing Cell
COS-1 cells (Dainippon Sumitomo Pharma Co., Ltd.) were cultured at 37° C. in an incubator under 5% CO2 gas conditions using a D-MEM liquid medium (containing high glucose and L-glutamine, Invitrogen Corporation) supplemented with a penicillin-streptomycin solution (Invitrogen Corporation, final concentration: 100 U/mL as benzylpenicillin; 100 μg/mL as streptomycin) as antibiotics, MEM non-essential amino acids (Invitrogen Corporation, final concentration: 0.1 mM), and fetal bovine serum (Moregate Biotech, final concentration: 10%), until reaching confluence.
The cells that reached confluence were dissociated with 0.05% trypsin/0.53 mM EDTA.4Na (Invitrogen Corporation) and resuspended in the liquid medium. The resuspended cells were diluted with the liquid medium so that the spread ratio became 1:4 to 1:8, and were cultured.
The cells that reached confluence were dissociated with 0.05% trypsin/0.53 mM EDTA.4Na and resuspended in a D-MEM liquid medium (containing high glucose and L-glutamine, Invitrogen Corporation) supplemented with MEM non-essential amino acids (final concentration: 0.1 mM) and fetal bovine serum (final concentration: 10%). This resuspended cell suspension was prepared with a liquid medium so as to become the number of cells 5×10^4 cells/100 μL of the liquid medium/well in each well of a poly-D-lysine-coated 96-well microplate (BD BioCoat (registered trademark), Nippon Becton Dickinson Co., Ltd.), and this cell preparation was dispensed at 100 μL to each well and seeded. After the seeding, the cells were cultured at 37° C. in an incubator under 5% CO2 gas conditions. The introduction of the rat EP1 expression vector was performed by procedures shown below at the point in time when the cells for introduction of this rat EP1 expression vector adhered (approximately 2 hours after the seeding).
Lipofectamine 2000 (Invitrogen Corporation) was used for the introduction of the rat EP1 expression vector. […]

| IC50 [nM] | Compound |
| --- | --- |
| 56 | COc1ccc2c(Cc3cccc(-c4nnn[nH]4)n3)c(-c3ccccc3)nn2c1 [Example 2-1, 6-Methoxy-2-phenyl-3-[[6-(1H-tetrazol-5-yl)pyridin-2-yl]methyl]pyrazolo[1,5-a]pyridine] |
| 29 | O=C(O)c1cccc(Cc2c(-c3ccccc3)nn3cc(Cl)ccc23)c1 [Example 3-2, 3-[(6-Chloro-2-phenylpyrazolo[1,5-a]pyridin-3-yl)methyl]benzoic acid] |
| 11 | COc1ccc2c(Cc3cccc(C(=O)O)c3)c(-c3ccccc3)nn2c1 [Example 3-4, 3-[(6-Methoxy-2-phenylpyrazolo[1,5-a]pyridin-3-yl)methyl]benzoic acid] |
| 6 | COc1ccc2c(Cc3cccc(C(=O)O)n3)c(-c3ccccc3)nn2c1 [Example 3-5, 6-[(6-Methoxy-2-phenylpyrazolo[1,5-a]pyridin-3-yl)methyl]pyridine-2-carboxylic acid] |
| 60 | COc1ccc2c(Cc3ccc(C(=O)O)o3)c(-c3ccccc3)nn2c1 [Example 3-6, 5-[(6-Methoxy-2-phenylpyrazolo[1,5-a]pyridin-3-yl)methyl]furan-2-carboxylic acid] |
| 21 | C=Cc1ccc2c(Cc3cccc(C(=O)O)n3)c(-c3ccccc3)nn2c1 [Example 3-11, 6-[(2-Phenyl-6-vinylpyrazolo[1,5-a]pyridin-3-yl)methyl]pyridine-2-carboxylic acid] |
| 11 | O=C(O)c1cccc(Cc2c(-c3ccccc3)nn3cc(Br)ccc23)n1 [Example 3-14, 6-[(6-Bromo-2-phenylpyrazolo[1,5-a]pyridin-3-yl)methyl]pyridine-2-carboxylic acid] |
| 39 | COc1ccc2c(Cc3cccc(C(=O)O)n3)c(C(C)(C)C)nn2c1 [Example 3-15, 6-[(2-tert-Butyl-6-methoxypyrazolo[1,5-a]pyridin-3-yl)methyl]pyridine-2-carboxylic acid] |
| 170 | COc1ccc2c(Cc3cccc(C(=O)O)n3)c(C3CCCC3)nn2c1 [Example 3-18, 6-[(2-Cyclopentyl-6-methoxypyrazolo[1,5-a]pyridin-3-yl)methyl]pyridine-2-carboxylic acid] |
| 19 | Cc1ccc2c(Cc3cccc(C(=O)O)n3)c(-c3ccccc3)nn2c1 [Example 3-21, 6-[(6-Methyl-2-phenylpyrazolo[1,5-a]pyridin-3-yl)methyl]pyridine-2-carboxylic acid] |
| 19 | O=C(O)c1cccc(Cc2c(-c3ccccc3)nn3cc(C(F)(F)F)ccc23)n1 [Example 3-22, 6-[[2-Phenyl-6-(trifluoromethyl)pyrazolo[1,5-a]pyridin-3-yl]methyl]pyridine-2-carboxylic acid] |
| 16 | COc1ccc2c(Cc3cccc(C(=O)O)n3)c(-c3ccc(F)cc3)nn2c1 [Example 3-24, 6-[[2-(4-Fluorophenyl)-6-methoxypyrazolo[1,5-a]pyridin-3-yl]methyl]pyridine-2-carboxylic acid] |
| 43 | COc1ccc2c(Cc3cccc(C(=O)O)n3)c(-c3ccsc3)nn2c1 [Example 3-32, 6-[[6-Methoxy-2-(thiophen-3-yl)pyrazolo[1,5-a]pyridin-3-yl]methyl]pyridine-2-carboxylic acid] |
| 110 | O=C(O)c1csc(Cc2c(-c3ccccc3)nn3cc(Cl)ccc23)n1 [Example 12-7] |
| 87 | CSc1ccc2c(Cc3cccc(C(=O)O)n3)c(-c3ccccc3)nn2c1 [Example 12-17, 6-[[6-(Methylthio)-2-phenylpyrazolo[1,5-a]pyridin-3-yl]methyl]pyridine-2-carboxylic acid] |
| 48 | CC(C)(C)c1nn2cc(Cl)ccc2c1Cc1cccc(C(=O)O)n1 [Example 12-23, 6-[(2-tert-Butyl-6-chloropyrazolo[1,5-a]pyridin-3-yl)methyl]pyridine-2-carboxylic acid] |
| 79 | O=C(O)c1cccc(Cc2c(N3CCCCC3)nn3cc(Cl)ccc23)n1 [Example 12-26, 6-[[6-Chloro-2-(piperidin-1-yl)pyrazolo[1,5-a]pyridin-3-yl]methyl]pyridine-2-carboxylic acid] |
| 160 | CC1(c2nn3cc(Cl)ccc3c2Cc2cccc(C(=O)O)n2)CC1 [Example 12-36, 6-[[6-Chloro-2-(1-methylcyclopropyl)pyrazolo[1,5-a]pyridin-3-yl]methyl]pyridine-2-carboxylic acid] |
| 39 | O=C(O)c1cccc(Cc2c(-c3cccc(F)c3)nn3cc(Cl)ccc23)n1 [Example 12-38, 6-[[6-Chloro-2-(3-fluorophenyl)pyrazolo[1,5-a]pyridin-3-yl]methyl]pyridine-2-carboxylic acid] |
| 2.9 | COc1ccc2c(Cc3cccc(C(=O)O)n3)c(-c3cccc(F)c3)nn2c1 [Example 12-53, 6-[[2-(3-Fluorophenyl)-6-methoxypyrazolo[1,5-a]pyridin-3-yl]methyl]pyridine-2-carboxylic acid] |
| 62 | CS(=O)(=O)NC(=O)c1cccc(Cc2c(-c3ccccc3)nn3cc(Cl)ccc23)n1 [Example 23-1, 6-[(6-Chloro-2-phenylpyrazolo[1,5-a]pyridin-3-yl)methyl]-N-(methylsulfonyl)pyridine-2-carboxamide] |
| 46 | O=c1[nH]c(-c2cccc(Cc3c(-c4ccccc4)nn4cc(Cl)ccc34)n2)no1 [Example 25-1] |
| 70 | S=c1[nH]c(-c2cccc(Cc3c(-c4ccccc4)nn4cc(Cl)ccc34)n2)no1 [Example 26-1] |
| 2.5 | Clc1ccc2c(Cc3cccc(-c4nnn[nH]4)n3)c(-c3ccccc3)nn2c1 [Example 28-1, 6-Chloro-2-phenyl-3-[[6-(1H-tetrazol-5-yl)pyridin-2-yl]methyl]pyrazolo[1,5-a]pyridine] |
